Test results: publication PMC7270110, “Labeled oxytocin administered via the intranasal route reaches the brain in rhesus macaques” (Nature Communications, 2020)
Where “and” joins values, the source holds several entries; their conditions need not be identical. Identical values can stand only once. Like-named read-outs stand apart in the source and are kept apart here.

Experiments:
[1] = Plasma concentration of d5OT by LC-MS/MS after IN or IV d5OT; assay type: in vivo, rhesus macaques (Macaca mulatta); settings: for level at 1 h: rhesus monkey, plasma, 60 min, present study
Procedure: (§1) The six monkeys were dosed once a week, for 4 consecutive weeks, with each DOSE–ROUTE condition of d5OT (40 IU IN, 40 IU IV, 80 IU IN, or 80 IU IV). Each DOSE–ROUTE condition was assigned using a Latin square randomization (Table 4). Sessions were separated by at least 6 days. During each session, CSF (750 µl) and blood (5 ml) samples were drawn immediately prior to (T = 0) and following (T = 60 and 120 min) each administration of d5OT.
(§2) Monkeys were divided into three groups, each with two monkeys; each group received the following in a terminal study at the 5th week: Group 1 (Monkeys ID# 1 and ID# 5) received 40 IU of d5OT IN, Group 2 received 80 IU of d5OT IN (Monkeys ID# 2 and ID# 4) and Group 3 received 80 IU of d5OT IV (Monkeys ID# 3 and ID# 6). Animals were perfused on average, 140 ± 7 (mean ± SD) min after d5OT administration (range = 135–149 min) (Table 4). Plasma and CSF were drawn just before administration of d5OT, at the midpoint between d5OT administration and perfusion (~60 min post-d5OT administration), and just before perfusion.
Chemicals: An unlabeled standard for d0OT and deuterated standard for d5OT were purchased from Sigma-Aldrich (St. Louis, MO); d10OT was purchased for use as an internal standard through a custom order from Cayman Chemical (Ann Arbor, MI). All other reagents were commercially available, and we purchased LC or MS grade chemicals when available. Plasma and CSF sample preparation for LC–MS/MS analysis. CSF and plasma samples were collected as described above. […]
(§3) Solid-phase extraction (SPE) columns (Strata-X-Drug B, 60 mg/6 ml, Phenomenex, Torrance, CA) were conditioned prior to use by adding 2 ml of methanol, followed by 2 ml of water, and 2 ml of 0.2 M ammonium acetate (pH 3.0) in water; each was allowed to flow through by gravity before the next was added. […] After a 15 min incubation at 4 °C, plates were filtered into microtiter plates (Shimadzu, Kyoto, Japan) using a positive pressure manifold (8 min at 5 psi, followed by 15 s at 15 psi; Biotage, Uppsala, Sweden), and analyzed. […]

[2] = LOQ 10 pg/ml, cited from earlier work
Procedure: Further, at 60 min in the previous study, the CSF concentrations of d5OT after IN delivery of 80 IU were highly variable (11, 16, 67, and 221 pg/ml), and would have been detectable in only two of the monkeys using the a ... || page 8: 4. It is surprising that no CSF d5 OT was detected at 60 or 120 minutes in CSF after IN administration. […] In our previous study (Lee et al., Mol Psychiatry 2018), after IN administration, CSF d5OT concentration at 60 minutes was quantified in 4 monkeys as follows: 11.28, 15.99, 67.65 and 221.62 pg/ml. In this previous study, the limit of quantification (LOQ) for d5OT was 10 pg/ml. The LOQ of d5OT in the present study was 100 pg/ml and the method dete ...

[3] = CSF concentration of d5OT by LC-MS/MS after IN or IV d5OT; assay type: in vivo, rhesus macaques (Macaca mulatta)
Procedure: as §1, §2
(§4) Chemicals: An unlabeled standard for d0OT and deuterated standard for d5OT were purchased from Sigma-Aldrich (St. Louis, MO); d10OT was purchased for use as an internal standard through a custom order from Cayman Chemical (Ann Arbor, MI). All other reagents were commercially available, and we purchased LC or MS grade chemicals when available. Plasma and CSF sample preparation for LC–MS/MS analysis. CSF and plasma samples were collected as described above. Using 15 ml polystyrene tubes, 1.0 ml of each standard, quality control (QC), or plasma sample was combined with 30 µl of internal standard mixture (34 ng/ml d10OT in 50:50 acetonitrile (ACN):water, v–v) and incubated for 20 min on ice. Volumes used for CSF samples ranged from 0.4 to 1.0 ml, depending on sample availability. CSF samples <1.0 ml were brought to a final volume of 1.0 ml using charcoal-stripped serum, prior to addition of internal standard. To each tube, 2 ml of ice-cold ACN was added, vortexed thoroughly, and centrifuged at 2500 × g for 10 min at 4 °C. The supernatants were transferred to new 13 mm × 100 mm polypropylene tubes and evaporated in a 37 °C water bath, under forced air, to a volume of <1 ml. We then added 5.5 ml of 0.2 M ammonium acetate (pH 3.0) in water, capped the tubes and mixed by inversion, before centrifugation at 2500 × g for 10 min at 4 °C.
as §3, with “added. The supernatants from the previous step were then added to SPE columns (one supernatant per column) by pouring. Columns were washed with 2 ml ammonium acetate (pH 3.0) in water, followed by 2 ml water and 2 ml ACN, and dried for 5 min in a vacuum manifold (5 in Hg; Millipore, Burlington, MA). OT was eluted with 2 × 1 ml 0.2% ammonium hydroxide in methanol into 12 mm × 75 mm polypropylene tubes and evaporated to dryness under forced air in a 37 °C water bath.” for “added.”

[4] = CSF concentration of endogenous d0OT by LC-MS/MS; assay type: in vivo, rhesus macaques (Macaca mulatta)
Procedure: as §1, §2
as §4, with “We then added 5.5 ml of 0.2 M ammonium acetate (pH 3.0) in water, capped the tubes and mixed by inversion, before centrifugation at 2500 × g for 10 min at 4 °C.” left out
as §3

Row | Concentrations of d5OT in the plasma ([1]; after 40 IU IN, all concentrations, LOQ 100 pg/ml) | level at 1 h ([1]; 80 IU IN condition, read-out: Plasma d5OT) | level at 1 h ([1]; IV condition, read-out: Mean plasma concentration of d5OT) | d5OT in CSF ([3]; 120 min after IV administration (40 and 80 IU), LC-MS/MS, MDL 38 pg/ml) | d5OT in CSF ([3]; after IN administration of either dose (40 or 80 IU), any timepoint, LC-MS/MS, MDL 38 pg/ml) | d5OT in CSF ([3]; timepoint 60 min after 40 IU IV, N = 6, LC-MS/MS, LOQ 100 pg/ml, MDL 38 pg/ml) | d5OT in CSF ([3]; timepoint 60 min after 80 IU IV, N = 6, LC-MS/MS, LOQ 100 pg/ml, MDL 38 pg/ml) | SMILES | CSF concentrations of d5OT ([2]; 60 min after IN delivery of 80 IU, individual monkeys, previous study) | CSF d5OT concentration ([2]; 60 minutes after IN administration, 4 individual monkeys, ref Lee et al., Mol Psychiatry 2018) | d5OT in CSF ([3]; just prior to necropsy, after 80 IU IV, single monkey, LOQ 100 pg/ml) | CSF concentrations of d0OT at necropsy ([4]; 40 IU IN condition, monkey #1) | CSF concentrations of d0OT at necropsy ([4]; 40 IU IN condition, one monkey) | CSF concentrations of d0OT at necropsy ([4]; 80 IU IN condition, two monkeys, listed as d0OT) | CSF concentrations of d0OT at necropsy ([4]; 80 IU IV condition, two monkeys, listed as d0OT)
1 | below the level of quantification | 0.284 ± 0.288 ng/mL | 1.99 ± 0.476 ng/mL | no d5OT detected | no d5OT detected | detected | detected | CC[C@H](C)[C@@H]1NC(=O)[C@H](Cc2ccc(O)cc2)NC(=O)[C@@H](N)CSSC[C@@H](C(=O)N2CCC[C@H]2C(=O)N[C@@H](CC(C)C)C(=O)NCC(N)=O)NC(=O)[C@H](CC(N)=O)NC(=O)[C@H](CCC(N)=O)NC1=O [d5OT] | 11 pg/mL and 16 pg/mL and 67 pg/mL and 221 pg/mL | 11.28 pg/mL and 15.99 pg/mL and 67.65 pg/mL and 221.62 pg/mL | below the limit of quantification | – | – | – | –
2 | – | – | – | – | – | – | – | CC[C@H](C)[C@@H]1NC(=O)[C@H](Cc2ccc(O)cc2)NC(=O)[C@@H](N)CSSC[C@@H](C(=O)N2CCC[C@H]2C(=O)N[C@@H](CC(C)C)C(=O)NCC(N)=O)NC(=O)[C@H](CC(N)=O)NC(=O)[C@H](CCC(N)=O)NC1=O [OT, oxytocin] | – | – | – | not quantified | 12 pg/mL | 16 pg/mL and 10 pg/mL | 16 pg/mL and 14 pg/mL
